Data published in US7084176B2, “N-arylphenylacetamide derivatives and medicinal compositions containing the same” (Dainippon Pharmaceutical Co., Ltd., priority 2001, dated 2006).
Structures can show the parent of a compound that is named as a salt. Where two headings read alike, the source gives them in different places.

Test system: male Std:ddY mice
Assay: Phenyl-1,4-benzoquinone-induced writhing test
Assay type: in vivo
Details: for inhibition in vivo at 1 mg/kg / ED50 / inhibition in vivo at 10 mg/kg: Mus musculus; for inhibition in vivo at 1 mg/kg / inhibition in vivo at 10 mg/kg: 1 h, 60 minutes before PBQ, read-out: Inhibitory percentage (%); for inhibition in vivo at 1 mg/kg: subcutaneously administered at a dose of 1 mg/kg; for ED50 / ED50 (mg/kg sc) / ED50 (mg/kg po): writhing inhibition, logit analysis; for inhibition in vivo at 10 mg/kg: orally administered at a dose of 10 mg/kg
Experimental: Phenyl-1,4-benzoquinone-induced Writhing Test Referring to the method disclosed in Proc. Soc. exp. Biol. […] For oral administration, a test compound was suspended in 0.5% tragacanth solution. […] In the control group, a physiological saline solution containing 10% Tween 80 and 10% ethanol was administered in the case of subcutaneous administration, or a 0.5% tragacanth solution was administered in the case of oral administration. The number of writhing movements in the test compound-treated group was compared with that in the control group, and the writhing inhibitory percentage was calculated therefrom and considered as an analgesic effect. Writhing inhibitory percentage (%)=[(A−B)/A]×100 In the above equation, A means the number of writhing movements in the control group, and B means the number of writhing movements in the test compound-treated group. From the writhing inhibitory percentage of the test compound, ED50 (mg/kg) was calculated by logit analysis.

[1] = sc, subcutaneous administration, read-out: ED50 (mg/kg sc)
[2] = po, oral administration, read-out: ED50 (mg/kg po)

Row | Structure (SMILES) | inhibition in vivo at 1 mg/kg (sc) [%] | ED50 [1] [mg/kg] | also measured
1 | CS(=O)(=O)Nc1cc(CC(=O)Nc2cccc(C3CCCCC3)c2)ccc1O [Ex. 34, N-(3-cyclohexylphenyl)-4-hydroxy-3-(methanesulfonylamino)phenylacetamide] | 41.5 | 0.48 | –
2 | COc1cc(CC(=O)Nc2cccc(C#Cc3ccccc3C(F)(F)F)c2)ccc1O [Ex. 37, 4-hydroxy-3-methoxy-N-[3-[2-(2-trifluoromethylphenyl)-ethynyl]phenyl]phenylacetamide] | 59.6 | 0.46 | –
3 | COc1cc(CC(=O)Nc2cccc(C3CCCCCC3)c2)ccc1OCCN [Ex. 58, 4-(2-aminoethoxy)-N-(3-cycloheptylphenyl)-3-methoxyphenylacetamide hydrochloride] | 54.4 | – | –
4 | COc1cc(CC(=O)Nc2ccccc2Cc2ccccc2)ccc1O [Ex. 97, N-(2-benzylphenyl)-4-hydroxy-3-methoxyphenylacetamide] | 54.9 | – | –
5 | COc1cc(CC(=O)Nc2ccc3c(c2)C(=O)/C(=C/C(C)C)CC3)ccc1O [Ex. 250] | 55 | – | –
6 | COc1cc(CC(=O)Nc2ccc3c(c2)C(=O)C(CC(C)C)CC3)ccc1O (centres unmarked) [Ex. 251, 4-hydroxy-3-methoxy-N-[1-oxo-2-(2-methylpropyl)-1,2,3,4-tetrahydronaphthalen-7-yl]phenylacetamide] | 42.7 | – | –
7 | COc1cc(CC(=O)Nc2cccc(C3CCCCC3)c2)ccc1O [Example 1, N-(3-cyclohexylphenyl)-4-hydroxy-3-methoxyphenylacetamide] | 100 | – | ED50 (mg/kg sc) (subcutaneous administration, listed as Ex. 1): 0.014 mg/kg
8 | COc1cc(CC(=O)Nc2cccc(C3C4CC5CC(C4)CC3C5)c2)ccc1O (centres unmarked) [Example 3, N-[3-(adamantan-2-yl)phenyl]-4-hydroxy-3-methoxyphenylacetamide] | 91.3 | 0.46 | –
9 | COc1cc(CC(=O)Nc2cccc(C3CCCC3)c2)ccc1O [Example 4, N-(3-cyclopentylphenyl)-4-hydroxy-3-methoxyphenylacetamide] | 79.6 | – | –
10 | COc1cc(CC(=O)Nc2cccc(CC3CCCCC3)c2)ccc1O [Example 5, N-[3-(cyclohexylmethyl)phenyl]-4-hydroxy-3-methoxyphenylacetamide] | 83.5 | 0.57 | –
11 | COc1cc(CC(=O)Nc2cccc(C3=CCCCC3)c2)ccc1O [Example 9, N-[3-(cyclohexen-1-yl)phenyl]-4-hydroxy-3-methoxyphenylacetamide] | 93.2 | 0.23 | –
12 | COc1cc(CC(=O)Nc2cccc(C3CCCCC3c3ccccc3)c2)ccc1O (centres unmarked) [Example 11, 4-hydroxy-3-methoxy-N-[3-(2-phenylcyclohexan-1-yl)phenyl]-phenylacetamide] | 88.4 | 0.19 | –
13 | COc1cc(CC(=O)Nc2cccc(C3CCC(C)CC3)c2)ccc1O (centres unmarked) [Example 13, 4-hydroxy-3-methoxy-N-[3-(4-methylcyclohexan-1-yl)phenyl]-phenylacetamide] | 100 | ≤ 0.1 | ED50 (mg/kg sc) (subcutaneous administration, listed as Ex. 13): 0.097 mg/kg
14 | COc1cc(CC(=O)Nc2cccc(-c3ccccc3)c2)ccc1O [Example 35, 4-hydroxy-3-methoxy-N-(3-phenylphenyl)phenylacetamide] | 89.4 | 0.23 | –
15 | COc1cc(CC(=O)Nc2cccc(C#Cc3ccccc3)c2)ccc1O [Example 36, 4-hydroxy-3-methoxy-N-[3-(2-phenylethynyl)phenyl]phenylacetamide] | 92.3 | – | ED50 (mg/kg sc) (subcutaneous administration, listed as Ex. 36): 0.046 mg/kg
16 | COc1cc(CC(=O)Nc2cccc(CCc3ccccc3)c2)ccc1O [Example 54, 4-hydroxy-3-methoxy-N-[3-(2-phenylethyl)phenyl]phenylacetamide] | 90.4 | ≤ 0.1 | ED50 (mg/kg sc) (subcutaneous administration, listed as Ex. 54): 0.081 mg/kg
17 | COc1cc(CC(=O)Nc2cccc(/C=C\c3ccccc3)c2)ccc1O [Example 56, 4-hydroxy-3-methoxy-N-[3-[(Z)-2-phenylvinyl]phenyl]phenylacetamide] | 82.7 | 0.11 | –

Row | Structure (SMILES) | inhibition in vivo at 1 mg/kg (sc) [%] | ED50 [1] [mg/kg] | also measured
18 | COc1cc(CC(=O)Nc2cccc(-c3ccccc3)c2)ccc1OCCN.Cl [Example 63, 4-(2-aminoethoxy)-3-methoxy-N-(3-phenylphenyl)phenylacetamide] | 100 | – | inhibition in vivo at 10 mg/kg (po): 100%; ED50 (mg/kg po) (oral administration, listed as Ex. 63): 0.021 mg/kg; ED50 (mg/kg sc) (subcutaneous administration, listed as Ex. 63): 0.016 mg/kg
19 | COc1cc(CC(=O)Nc2cccc(C3CCC(C(C)(C)C)CC3)c2)ccc1OC(C)=O (centres unmarked) [Example 69, 4-acetoxy-N-[3-(4-tert-butylcyclohexan-1-yl)phenyl]-3-methoxyphenylacetamide] | 99 | ≤ 0.1 | inhibition in vivo at 10 mg/kg (po): 73.5%; ED50 [2]: 2.81 mg/kg; ED50 (mg/kg sc) (subcutaneous administration, listed as Ex. 69): 0.088 mg/kg
20 | COc1cc(CC(=O)Nc2cccc(C3CCC(C(C)(C)C)CC3)c2)ccc1OC(=O)c1ccccc1 (centres unmarked) [Example 70, 4-benzoyloxy-N-[3-(4-tert-butylcyclohexan-1-yl)phenyl]-3-methoxyphenylacetamide] | 93.2 | 0.16 | inhibition in vivo at 10 mg/kg (po): 68.6%; ED50 [2]: 9.7 mg/kg
21 | COc1cc(CC(=O)Nc2cccc(C3CCC(C(C)(C)C)CC3)c2)ccc1OC(=O)C(C)(C)C (centres unmarked) [Example 71, 4-tert-butylcarbonyloxy-N-[3-(4-tert-butylcyclohexan-1-yl)-phenyl]-3-methoxyphenylacetamide] | 94.2 | 0.16 | –
22 | COc1cc(CC(=O)Nc2cccc(C3=CCC(C(C)(C)C)CC3)c2)ccc1O (centres unmarked) [Example 80, N-[3-(4-tert-butylcyclohexen-1-yl)phenyl]-4-hydroxy-3-methoxyphenylacetamide] | 100 | 0.37 | –
23 | COc1cc(CC(=O)Nc2cccc(C3CCC(C(F)(F)F)CC3)c2)ccc1O (centres unmarked) [Example 81, 4-hydroxy-3-methoxy-N-[3-(4-trifluoromethylcyclohexan-1-yl)-phenyl]phenylacetamide] | 100 | – | –
24 | COc1cc(CC(=O)Nc2cccc(C3CCCC(C)C3)c2)ccc1O (centres unmarked) [Example 83, 4-hydroxy-3-methoxy-N-[3-(3-methylcyclohexan-1-yl)phenyl]-phenylacetamide] | 83 | ≤ 0.1 | ED50 (mg/kg sc) (subcutaneous administration, listed as Ex. 83): 0.10 mg/kg
25 | COc1cc(CC(=O)Nc2cccc(C3C(C)CCCC3C)c2)ccc1O (centres unmarked) [Example 84, N-[3-(2,6-dimethylcyclohexan-1-yl)phenyl]-4-hydroxy-3-methoxyphenylacetamide] | 67.7 | 0.45 | –
26 | COc1cc(CC(=O)Nc2cccc(C3CC(C)CC(C)C3)c2)ccc1O (centres unmarked) [Example 85, N-[3-(3,5-dimethylcyclohexan-1-yl)phenyl]-4-hydroxy-3-methoxyphenylacetamide] | 76.9 | 0.31 | –
27 | COc1cc(CC(=O)Nc2cccc(N3CCC(C(C)(C)C)CC3)c2)ccc1O [Example 86, N-[3-(4-tert-butylpiperidin-1-yl)phenyl]-4-hydroxy-3-methoxyphenylacetamide] | 78.8 | 0.33 | –
28 | COc1cc(CC(=O)Nc2cccc(N3CCCC(C4CCCCC4)C3)c2)ccc1O (centres unmarked) [Example 87, N-[3-(3-cyclohexylpiperidin-1-yl)phenyl]-4-hydroxy-3-methoxyphenylacetamide] | 95.8 | 0.4 | –
29 | COc1cc(CC(=O)Nc2cccc(N3CCCC(C)C3)c2)ccc1O (centres unmarked) [Example 88, N-[3-(3-methylpiperidin-1-yl)phenyl]-4-hydroxy-3-methoxyphenylacetamide] | 76.6 | – | –
30 | COc1cc(CC(=O)Nc2cccc(-c3ccc(Cl)s3)c2)ccc1O [Example 100, 4-hydroxy-3-methoxy-N-[3-(2-chlorothiophen-5-yl)phenyl]-phenylacetamide] | 100 | – | –
31 | COc1cc(CC(=O)Nc2cccc(-c3cccn3C(=O)OC(C)(C)C)c2)ccc1O [Example 101, 4-hydroxy-3-methoxy-N-[3-(1-tert-butoxycarbonylpyrrol-2-yl)-phenyl]phenylacetamide] | 100 | 0.23 | –
32 | COc1cc(CC(=O)Nc2cccc(CCC3CCCCC3)c2)ccc1O [Example 114, 4-hydroxy-3-methoxy-N-[3-(2-cyclohexylethyl)phenyl]phenylacetamide] | 98 | – | –
33 | COc1cc(CC(=O)Nc2cccc(-c3ccccc3C3CCCCC3)c2)ccc1OCCN [Example 122, 4-(2-aminoethoxy)-N-[3-(2-cyclohexylphenyl)phenyl]-3-methoxyphenylacetamide] | – | – | inhibition in vivo at 10 mg/kg (po): 99%; ED50 [2]: ≤ 1 mg/kg; ED50 (mg/kg po) (oral administration, listed as Ex. 122): 0.58 mg/kg
34 | COc1cc(CC(=O)Nc2cccc(-c3ccccc3F)c2)ccc1OCCN [Example 123, 4-(2-aminoethoxy)-N-[3-(2-fluorophenyl)phenyl]-3-methoxyphenylacetamide] | – | – | inhibition in vivo at 10 mg/kg (po): 100%; ED50 [2]: ≤ 1 mg/kg; ED50 (mg/kg po) (oral administration, listed as Ex. 123): 0.76 mg/kg
